Key:
[1] = tested on: Cyperus serotinus, Rottb.; experiment: Preemergence weed control under flooded paddy conditions, CYPSE (Flatsedge); format: in vivo; conditions: rated three to four weeks after treatment; further: meaning of each grade not given here
[2] = tested on: Monochoria vaginalis, Presl.; experiment: Postemergence weed control under flooded paddy conditions, MOOVA (Monochoria); format: in vivo; conditions: rated three to four weeks after treatment
[3] = tested on: Oryza sativa, (L.) Tebonnet; experiment: Rice tolerance to post-transplant applications under flooded paddy conditions (Example 187), ORYSAT (Rice, Tebonnet); conditions: rated three to four weeks after treatment; further: meaning of each grade not given here
[4] = tested on: Cyperus serotinus, Rottb.; experiment: Postemergence weed control under flooded paddy conditions, CYPSE (Flatsedge); format: in vivo; conditions: rated three to four weeks after treatment
Cyperus iria [5] = experiment: Preemergence weed control under flooded paddy conditions, CYPIR (Rice Flatsedge); format: in vivo; conditions: flooded paddy, rated three to four weeks after treatment; further: meaning of each grade not given here
[6] = tested on: Echinochloa oryzoides (Ard.) Fritsch.; experiment: Preemergence weed control under flooded paddy conditions, ECHORC (Watergrass (Calif.)); format: in vivo; conditions: flooded paddy, rated three to four weeks after treatment; further: meaning of each grade not given here
Sagittaria pygmaea, L. [7] = experiment: Postemergence weed control under flooded paddy conditions, SAGPY (Arrowhead (Pygmaea)); format: in vivo; conditions: rated three to four weeks after treatment
[8] = tested on: Echinochloa oryzoides (Ard.) Fritsch.; experiment: Postemergence weed control under flooded paddy conditions, ECHORC (Watergrass (Calif.)); format: in vivo; conditions: rated three to four weeks after treatment
Sagittaria pygmaea, L. [9] = experiment: Preemergence weed control under flooded paddy conditions, SAGPY (Arrowhead (Pygmaea)); format: in vivo; conditions: flooded paddy, rated three to four weeks after treatment; further: meaning of each grade not given here
[10] = tested on: Monochoria vaginalis, Presl.; experiment: Preemergence weed control under flooded paddy conditions, MOOVA (Monochoria); format: in vivo; conditions: flooded paddy, rated three to four weeks after treatment; further: meaning of each grade not given here
Cyperus iria [11] = experiment: Postemergence weed control under flooded paddy conditions, CYPIR (Rice Flatsedge); format: in vivo; conditions: rated three to four weeks after treatment
[12] = tested on: Oryza sativa, (L.) Tebonnet; experiment: Rice tolerance to post-transplant applications under flooded paddy conditions (Example 188), ORYSAT (Rice, Tebonnet); conditions: rated three to four weeks after treatment
[13] = Rate 0.0320 kg/ha, preemergence weeds
[14] = Rate 0.0620 kg/ha, preemergence weeds
[15] = Rate 0.1250 kg/ha, preemergence weeds
[16] = Rate 0.2500 kg/ha, preemergence weeds
[17] = Rate 0.0320 kg/ha, preemergence
[18] = Rate 0.0620 kg/ha, preemergence
[19] = Rate 0.1250 kg/ha, preemergence
[20] = Rate 0.2500 kg/ha, preemergence

Compound: CC(C)Oc1cccc(-c2nsc3ccc(-n4c(=O)cc(C(F)(F)F)n(C)c4=O)cc23)c1 [Example 328, 2,4(1H,3H)-Pyrimidinedione, 3-[3-(m-isopropoxyphenyl)-1,2-benzisothiazol-5-yl]-1-methyl-6-(trifluoromethyl)-]
- herbicidal effect rating, CYPSE [1, 13]: 6.0
- herbicidal effect rating, CYPSE [1, 14]: 6.0
- herbicidal effect rating, CYPSE [1, 15]: 7.5
- herbicidal effect rating, CYPSE [1, 16]: 9.0
- herbicidal effect rating, MOOVA ([2]; Rate 0.0320 kg/ha): 9.0
- herbicidal effect rating, MOOVA ([2]; Rate 0.0620 kg/ha): 9.0
- herbicidal effect rating, MOOVA ([2]; Rate 0.1250 kg/ha): 9.0
- herbicidal effect rating, MOOVA ([2]; Rate 0.2500 kg/ha): 9.0
- herbicidal effect rating ORYSAT ([3]; Rate 0.0320 kg/ha): 2.0
- herbicidal effect rating ORYSAT ([3]; Rate 0.0620 kg/ha): 3.0
- herbicidal effect rating ORYSAT ([3]; Rate 0.1250 kg/ha): 4.0
- herbicidal effect rating ORYSAT ([3]; Rate 0.2500 kg/ha): 4.5
- herbicidal effect rating, CYPSE ([4]; Rate 0.0320 kg/ha): 0.0
- herbicidal effect rating, CYPSE ([4]; Rate 0.0620 kg/ha): 2.0
- herbicidal effect rating, CYPSE ([4]; Rate 0.1250 kg/ha): 6.0
- herbicidal effect rating, CYPSE ([4]; Rate 0.2500 kg/ha): 6.0
- herbicidal effect rating, CYPIR (Cyperus iria [5]; [13]): 9.0
- herbicidal effect rating, CYPIR (Cyperus iria [5]; [14]): 9.0
- herbicidal effect rating, CYPIR (Cyperus iria [5]; [15]): 9.0
- herbicidal effect rating, CYPIR (Cyperus iria [5]; [16]): 9.0
- herbicidal effect rating, ECHORC [6, 13]: 9.0
- herbicidal effect rating, ECHORC [6, 14]: 9.0
- herbicidal effect rating, ECHORC [6, 15]: 9.0
- herbicidal effect rating, ECHORC [6, 16]: 9.0
- herbicidal effect rating, SAGPY (Sagittaria pygmaea, L. [7]; Rate 0.0320 kg/ha): 0.0
- herbicidal effect rating, SAGPY (Sagittaria pygmaea, L. [7]; Rate 0.0620 kg/ha): 0.0
- herbicidal effect rating, SAGPY (Sagittaria pygmaea, L. [7]; Rate 0.1250 kg/ha): 2.0
- herbicidal effect rating, SAGPY (Sagittaria pygmaea, L. [7]; Rate 0.2500 kg/ha): 6.0
- herbicidal effect rating, ECHORC ([8]; Rate 0.0320 kg/ha): 7.0
- herbicidal effect rating, ECHORC ([8]; Rate 0.0620 kg/ha): 9.0
- herbicidal effect rating, ECHORC ([8]; Rate 0.1250 kg/ha): 9.0
- herbicidal effect rating, ECHORC ([8]; Rate 0.2500 kg/ha): 9.0
- herbicidal effect rating, SAGPY (Sagittaria pygmaea, L. [9]; [13]): 2.5
- herbicidal effect rating, SAGPY (Sagittaria pygmaea, L. [9]; [14]): 3.0
- herbicidal effect rating, SAGPY (Sagittaria pygmaea, L. [9]; [15]): 4.5
- herbicidal effect rating, SAGPY (Sagittaria pygmaea, L. [9]; [16]): 4.5
- herbicidal effect rating, MOOVA [10, 13]: 9.0
- herbicidal effect rating, MOOVA [10, 14]: 9.0
- herbicidal effect rating, MOOVA [10, 15]: 9.0
- herbicidal effect rating, MOOVA [10, 16]: 9.0
- herbicidal effect rating, CYPIR (Cyperus iria [11]; Rate 0.0320 kg/ha): 9.0
- herbicidal effect rating, CYPIR (Cyperus iria [11]; Rate 0.0620 kg/ha): 9.0
- herbicidal effect rating, CYPIR (Cyperus iria [11]; Rate 0.1250 kg/ha): 9.0
- herbicidal effect rating, CYPIR (Cyperus iria [11]; Rate 0.2500 kg/ha): 9.0
- herbicidal effect rating, ORYSAT (rice tolerance) ([12]; Rate 0.0320 kg/ha): 2.0
- herbicidal effect rating, ORYSAT (rice tolerance) ([12]; Rate 0.0620 kg/ha): 4.0
- herbicidal effect rating, ORYSAT (rice tolerance) ([12]; Rate 0.1250 kg/ha): 4.0
- herbicidal effect rating, ORYSAT (rice tolerance) ([12]; Rate 0.2500 kg/ha): 4.0

Compound: COc1ccc(OC)c(-c2nsc3ccc(-n4c(=O)cc(C(F)(F)F)n(C)c4=O)cc23)c1 [Example 333, 2,4(1H,3H)-Pyrimidinedione, 3-[3-(2,5-dimethoxyphenyl)-1,2-benzisothiazol-5-yl]-1-methyl-6-(trifluoromethyl)-]
- herbicidal effect rating, CYPSE [1, 13]: 7.0
- herbicidal effect rating, CYPSE [1, 14]: 7.0
- herbicidal effect rating, CYPSE [1, 15]: 7.5
- herbicidal effect rating, CYPSE [1, 16]: 7.5
- herbicidal effect rating, MOOVA ([2]; Rate 0.0320 kg/ha): 9.0
- herbicidal effect rating, MOOVA ([2]; Rate 0.0620 kg/ha): 9.0
- herbicidal effect rating, MOOVA ([2]; Rate 0.1250 kg/ha): 9.0
- herbicidal effect rating, MOOVA ([2]; Rate 0.2500 kg/ha): 9.0
- herbicidal effect rating ORYSAT ([3]; Rate 0.0320 kg/ha): 4.0
- herbicidal effect rating ORYSAT ([3]; Rate 0.0620 kg/ha): 6.0
- herbicidal effect rating ORYSAT ([3]; Rate 0.1250 kg/ha): 7.0
- herbicidal effect rating ORYSAT ([3]; Rate 0.2500 kg/ha): 7.0
- herbicidal effect rating, CYPSE ([4]; Rate 0.0320 kg/ha): 0.0
- herbicidal effect rating, CYPSE ([4]; Rate 0.0620 kg/ha): 2.0
- herbicidal effect rating, CYPSE ([4]; Rate 0.1250 kg/ha): 4.0
- herbicidal effect rating, CYPSE ([4]; Rate 0.2500 kg/ha): 8.0
- herbicidal effect rating, CYPIR (Cyperus iria [5]; [13]): 9.0
- herbicidal effect rating, CYPIR (Cyperus iria [5]; [14]): 9.0
- herbicidal effect rating, CYPIR (Cyperus iria [5]; [15]): 9.0
- herbicidal effect rating, CYPIR (Cyperus iria [5]; [16]): 9.0
- herbicidal effect rating, ECHORC [6, 13]: 9.0
- herbicidal effect rating, ECHORC [6, 14]: 9.0
- herbicidal effect rating, ECHORC [6, 15]: 9.0
- herbicidal effect rating, ECHORC [6, 16]: 9.0
- herbicidal effect rating, SAGPY (Sagittaria pygmaea, L. [7]; Rate 0.0320 kg/ha): 0.0
- herbicidal effect rating, SAGPY (Sagittaria pygmaea, L. [7]; Rate 0.0620 kg/ha): 2.0
- herbicidal effect rating, SAGPY (Sagittaria pygmaea, L. [7]; Rate 0.1250 kg/ha): 4.0
- herbicidal effect rating, SAGPY (Sagittaria pygmaea, L. [7]; Rate 0.2500 kg/ha): 4.0
- herbicidal effect rating, ECHORC ([8]; Rate 0.0320 kg/ha): 9.0
- herbicidal effect rating, ECHORC ([8]; Rate 0.0620 kg/ha): 9.0
- herbicidal effect rating, ECHORC ([8]; Rate 0.1250 kg/ha): 9.0
- herbicidal effect rating, ECHORC ([8]; Rate 0.2500 kg/ha): 9.0
- herbicidal effect rating, SAGPY (Sagittaria pygmaea, L. [9]; [13]): 5.5
- herbicidal effect rating, SAGPY (Sagittaria pygmaea, L. [9]; [14]): 8.0
- herbicidal effect rating, SAGPY (Sagittaria pygmaea, L. [9]; [15]): 8.5
- herbicidal effect rating, SAGPY (Sagittaria pygmaea, L. [9]; [16]): 9.0
- herbicidal effect rating, MOOVA [10, 13]: 9.0
- herbicidal effect rating, MOOVA [10, 14]: 9.0
- herbicidal effect rating, MOOVA [10, 15]: 9.0
- herbicidal effect rating, MOOVA [10, 16]: 9.0
- herbicidal effect rating, CYPIR (Cyperus iria [11]; Rate 0.0320 kg/ha): 9.0
- herbicidal effect rating, CYPIR (Cyperus iria [11]; Rate 0.0620 kg/ha): 9.0
- herbicidal effect rating, CYPIR (Cyperus iria [11]; Rate 0.1250 kg/ha): 9.0
- herbicidal effect rating, CYPIR (Cyperus iria [11]; Rate 0.2500 kg/ha): 9.0
- herbicidal effect rating, ORYSAT (rice tolerance) ([12]; Rate 0.0320 kg/ha): 4.0
- herbicidal effect rating, ORYSAT (rice tolerance) ([12]; Rate 0.0620 kg/ha): 5.0
- herbicidal effect rating, ORYSAT (rice tolerance) ([12]; Rate 0.1250 kg/ha): 6.0
- herbicidal effect rating, ORYSAT (rice tolerance) ([12]; Rate 0.2500 kg/ha): 6.0

Compound: CON(C)C(=O)COc1ccccc1-c1nsc2ccc(-n3c(=O)cc(C(F)(F)F)n(C)c3=O)cc12 [Example 354, Acetamide, 2-{o-{5-[3,6-dihydro-3-methyl-2,6-dioxo-4-(trifluoromethyl)-1(2H)-pyrimidinyl]-1,2-benzisothiazol-3-yl}phenoxy}-N-methoxy-N-methyl-]
- herbicidal effect rating, CYPSE [1, 17]: 8.0
- herbicidal effect rating, CYPSE [1, 18]: 9.0
- herbicidal effect rating, CYPSE [1, 19]: 9.0
- herbicidal effect rating, CYPSE [1, 20]: 9.0
- herbicidal effect rating, MOOVA ([2]; Rate 0.0320 kg/ha): 6.0
- herbicidal effect rating, MOOVA ([2]; Rate 0.0620 kg/ha): 9.0
- herbicidal effect rating, MOOVA ([2]; Rate 0.1250 kg/ha): 9.0
- herbicidal effect rating ORYSAT ([3]; Rate 0.0320 kg/ha): 7.3
- herbicidal effect rating ORYSAT ([3]; Rate 0.0620 kg/ha): 8.0
- herbicidal effect rating ORYSAT ([3]; Rate 0.1250 kg/ha): 9.0
- herbicidal effect rating ORYSAT ([3]; Rate 0.2500 kg/ha): 9.0
- herbicidal effect rating, CYPSE ([4]; Rate 0.0320 kg/ha): 1.0
- herbicidal effect rating, CYPSE ([4]; Rate 0.0620 kg/ha): 2.0
- herbicidal effect rating, CYPSE ([4]; Rate 0.1250 kg/ha): 9.0
- herbicidal effect rating, CYPIR (Cyperus iria [5]; [17]): 8.3
- herbicidal effect rating, CYPIR (Cyperus iria [5]; [18]): 9.0
- herbicidal effect rating, CYPIR (Cyperus iria [5]; [19]): 9.0
- herbicidal effect rating, CYPIR (Cyperus iria [5]; [20]): 9.0
- herbicidal effect rating, ECHORC [6, 17]: 9.0
- herbicidal effect rating, ECHORC [6, 18]: 9.0
- herbicidal effect rating, ECHORC [6, 19]: 9.0
- herbicidal effect rating, ECHORC [6, 20]: 9.0
- herbicidal effect rating, SAGPY (Sagittaria pygmaea, L. [7]; Rate 0.0320 kg/ha): 0.0
- herbicidal effect rating, SAGPY (Sagittaria pygmaea, L. [7]; Rate 0.0620 kg/ha): 2.0
- herbicidal effect rating, SAGPY (Sagittaria pygmaea, L. [7]; Rate 0.1250 kg/ha): 9.0
- herbicidal effect rating, ECHORC ([8]; Rate 0.0320 kg/ha): 4.0
- herbicidal effect rating, ECHORC ([8]; Rate 0.0620 kg/ha): 7.0
- herbicidal effect rating, ECHORC ([8]; Rate 0.1250 kg/ha): 9.0
- herbicidal effect rating, SAGPY (Sagittaria pygmaea, L. [9]; [17]): 6.3
- herbicidal effect rating, SAGPY (Sagittaria pygmaea, L. [9]; [18]): 9.0
- herbicidal effect rating, SAGPY (Sagittaria pygmaea, L. [9]; [19]): 9.0
- herbicidal effect rating, SAGPY (Sagittaria pygmaea, L. [9]; [20]): 9.0
- herbicidal effect rating, MOOVA [10, 17]: 9.0
- herbicidal effect rating, MOOVA [10, 18]: 9.0
- herbicidal effect rating, MOOVA [10, 19]: 9.0
- herbicidal effect rating, MOOVA [10, 20]: 9.0
- herbicidal effect rating, CYPIR (Cyperus iria [11]; Rate 0.0620 kg/ha): 9.0
- herbicidal effect rating, CYPIR (Cyperus iria [11]; Rate 0.1250 kg/ha): 9.0
- herbicidal effect rating, ORYSAT (rice tolerance) ([12]; Rate 0.0620 kg/ha): 6.0
- herbicidal effect rating, ORYSAT (rice tolerance) ([12]; Rate 0.1250 kg/ha): 6.0
